Reference: ChEMBL document CHEMBL5038666, “Discovery of DNA-Targeting HDAC Inhibitors with Potent Antitumor Efficacy In Vivo That Trigger Antitumor Immunity” (J Med Chem, 2022)
The source made the active and inactive calls. The calls are words filed in the database; no cut-off is given here.

How the values were obtained:
B16-F10 [1] = test: Antitumor activity against mouse B16-F10 cells implanted in C57BL/6J mouse assessed as reduction on tumor weight at 60 mg/kg, IG administered for 12 days; type: functional, organism-based; conditions: time 12.0 day
Histone deacetylase = test: Inhibition of HDAC in human HeLa nuclear extract using fluorogenic substrate incubated for 30 mins by fluorescence based assay; type: cell-based
Histone deacetylase 1 = Histone deacetylase 1 (Homo sapiens, UniProt Q13547); test: Inhibition of HDAC1 (unknown origin) using fluorogenic substrate incubated for 30 mins by fluorescence based assay
Histone deacetylase 2 = Histone deacetylase 2 (Homo sapiens, UniProt Q92769); test: Inhibition of HDAC2 (unknown origin) using fluorogenic substrate incubated for 30 mins by fluorescence based assay
Histone deacetylase 8 = biological target: T1, Histone deacetylase 8 (Homo sapiens, UniProt Q9BY41); test: Inhibition of HDAC8 (unknown origin) using fluorogenic substrate incubated for 30 mins by fluorescence based assay
T1 sequence (Q9BY41 whole entry): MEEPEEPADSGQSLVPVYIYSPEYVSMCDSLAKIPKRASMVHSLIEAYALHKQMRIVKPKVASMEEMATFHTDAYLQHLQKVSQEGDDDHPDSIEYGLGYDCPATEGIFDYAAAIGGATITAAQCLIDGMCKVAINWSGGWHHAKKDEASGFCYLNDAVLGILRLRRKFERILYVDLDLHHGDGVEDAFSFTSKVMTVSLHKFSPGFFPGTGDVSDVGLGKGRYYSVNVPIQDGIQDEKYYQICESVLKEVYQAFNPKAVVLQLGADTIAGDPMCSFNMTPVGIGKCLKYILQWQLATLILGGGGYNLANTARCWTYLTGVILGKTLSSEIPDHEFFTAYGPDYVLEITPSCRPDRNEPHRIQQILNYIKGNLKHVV

PC-3 = test: cells; type: functional, cell-based; conditions: Homo sapiens, PC-3, 48 h
Description: Antiproliferative activity against human PC3 cells assessed as inhibition of cell growth measured after 48 hrs by MTT assay

HepG2 = test: cells; type: functional, cell-based; conditions: Homo sapiens, HepG2, 48 h
Description: Antiproliferative activity against human HepG2 cells assessed as inhibition of cell growth measured after 48 hrs by MTT assay

HEL [2] = test: cells; type: functional, cell-based; conditions: Homo sapiens, 48 h
Description: Antiproliferative activity against HEL cells assessed as inhibition of cell growth measured after 48 hrs by MTT assay

KG-1 = test: Antiproliferative activity against human KG-1 cells assessed as inhibition of cell growth measured after 48 hrs by MTT assay; type: functional, cell-based; conditions: KG-1, 48 h
K562 = test: cells; type: functional, cell-based; conditions: Homo sapiens, K562, 48 h
Description: Antiproliferative activity against human K562 cells assessed as inhibition of cell growth measured after 48 hrs by MTT assay

HEL [3] = test: Antitumor activity against HEL cells xenografted in mouse assessed as inhibition of tumor growth at 90 mg/kg, ip administered for 20 days; type: functional, organism-based; conditions: Homo sapiens, time 20.0 day
[4] = Toxicity in mouse xenografted with HEL cells assessed as effect on body weight at 90 mg/kg, ip administered for 20 days; type: organism-based; conditions: in vivo, 480 h, time 20 day
B16-F10 [5] = test: cells; type: functional, cell-based; conditions: Mus musculus, B16-F10, 48 h
Description: Antiproliferative activity against mouse B16-F10 cells assessed as inhibition of cell growth measured after 48 hrs by MTT assay

B16-F10 [6] = test: Induction of apoptosis in mouse B16-F10 cells at 5 to 10 uM measured after 24 hrs by Annexin V-FITC/propidium iodide staining based flow cytometry analysis; type: functional, cell-based; conditions: dose 5-10 µM
B16-F10 [7] = test: Antitumor activity against mouse B16-F10 cells implanted in C57BL/6J mouse assessed as reduction on tumor volume at 60 mg/kg, IG administered for 12 days; type: functional, organism-based; conditions: time 12.0 day
B16-F10 [8] = test: Antitumor activity against mouse B16-F10 cells implanted in C57BL/6J mouse assessed as reduction on tumor size at 60 mg/kg, IG administered for 12 days; type: functional, organism-based; conditions: time 12.0 day
[9] = Toxicity in C57BL/6J mouse implanted with mouse B16-F10 cells assessed as effect on body weight at 60 mg/kg, IG administered for 12 days; type: organism-based; conditions: in vivo, po, 288 h, time 12 day
[10] = Toxicity in C57BL/6J mouse implanted with mouse B16-F10 cells assessed as glomerular structure damage in kidney at 60 mg/kg, IG administered for 12 days H and E staining based histopathological analysis; type: organism-based; conditions: in vivo, po, 288 h, time 12 day
[11] = Toxicity in C57BL/6J mouse implanted with mouse B16-F10 cells assessed as liver damage at 60 mg/kg, IG administered for 12 days H and E staining based histopathological analysis; type: organism-based; conditions: in vivo, po, 288 h, time 12 day
[12] = Toxicity in C57BL/6J mouse implanted with mouse B16-F10 cells assessed as heart damage at 60 mg/kg, IG administered for 12 days H and E staining based histopathological analysis; type: organism-based; conditions: in vivo, po, 288 h, time 12 day
[13] = Toxicity in C57BL/6J mouse implanted with mouse B16-F10 cells assessed as spleen damage at 60 mg/kg, IG administered for 12 days H and E staining based histopathological analysis; type: organism-based; conditions: in vivo, po, 288 h, time 12 day
B16-F10 [14] = test: Antitumor immunity against mouse B16-F10 cells implanted in C57BL/6J mouse assessed as fold increase in proportion of macrophages in spleen by flow cytometry analysis relative to control; type: functional
B16-F10 [15] = test: Antitumor immunity against mouse B16-F10 cells implanted in C57BL/6J mouse assessed as fold increase in CD86 expression by flow cytometry analysis relative to control; type: functional
B16-F10 [16] = test: Antitumor immunity against mouse B16-F10 cells implanted in C57BL/6J mouse assessed as fold reduction in Treg cells in spleen by flow cytometry analysis relative to control; type: functional
B16-F10 [17] = test: Antitumor immunity against mouse B16-F10 cells implanted in C57BL/6J mouse assessed as fold increase in downregulation of CD200R expression in spleen by flow cytometry analysis relative to control; type: functional
B16-F10 [18] = test: Antitumor activity against mouse B16-F10 cells xenografted in C57BL/6J mouse assessed as reduction in tumor heterogeneity at 60 mg/kg, IG administered for 12 days by H and E staining based histopathological analysis; type: functional, organism-based; conditions: time 12.0 day
B16-F10 [19] = test: Antitumor activity against mouse B16-F10 cells xenografted in C57BL/6J mouse assessed as change in tumor cell morphology into normal tissue at 60 mg/kg, IG administered for 12 days by H and E staining based histopathological analysis; type: functional, organism-based; conditions: time 12.0 day

Chain of Histone deacetylase 1 (Q13547 whole entry): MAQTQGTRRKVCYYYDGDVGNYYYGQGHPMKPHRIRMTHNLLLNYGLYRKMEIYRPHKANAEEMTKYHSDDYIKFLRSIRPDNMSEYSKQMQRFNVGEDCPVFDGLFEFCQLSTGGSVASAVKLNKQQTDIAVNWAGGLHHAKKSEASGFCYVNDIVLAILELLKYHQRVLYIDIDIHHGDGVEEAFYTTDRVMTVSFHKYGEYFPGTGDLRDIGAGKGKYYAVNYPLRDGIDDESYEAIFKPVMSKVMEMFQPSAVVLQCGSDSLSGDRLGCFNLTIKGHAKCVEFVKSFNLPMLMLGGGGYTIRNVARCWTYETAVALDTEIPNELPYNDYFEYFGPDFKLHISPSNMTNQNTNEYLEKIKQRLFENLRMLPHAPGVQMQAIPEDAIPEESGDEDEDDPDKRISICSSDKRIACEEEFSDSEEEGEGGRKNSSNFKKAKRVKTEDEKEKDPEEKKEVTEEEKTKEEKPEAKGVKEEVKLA
Chain of Histone deacetylase 2 (Q92769 whole entry): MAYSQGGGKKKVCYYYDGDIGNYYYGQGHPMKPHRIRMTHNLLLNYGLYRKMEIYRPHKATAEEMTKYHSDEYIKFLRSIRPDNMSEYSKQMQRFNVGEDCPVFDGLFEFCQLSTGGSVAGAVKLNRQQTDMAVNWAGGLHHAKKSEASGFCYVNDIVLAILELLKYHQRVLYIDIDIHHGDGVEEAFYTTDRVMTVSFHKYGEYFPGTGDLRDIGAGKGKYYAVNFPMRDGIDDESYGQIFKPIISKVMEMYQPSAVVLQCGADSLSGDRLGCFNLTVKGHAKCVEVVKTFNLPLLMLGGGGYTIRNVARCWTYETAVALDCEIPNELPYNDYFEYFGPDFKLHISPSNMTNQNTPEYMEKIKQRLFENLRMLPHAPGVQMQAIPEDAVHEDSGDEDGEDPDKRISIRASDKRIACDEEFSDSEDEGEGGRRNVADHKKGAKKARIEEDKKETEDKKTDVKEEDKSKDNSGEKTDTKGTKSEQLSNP

| SMILES | Activity (B16-F10 [1]) | IC50 (Histone deacetylase) [nM] | IC50 (Histone deacetylase 1) [nM] | IC50 (Histone deacetylase 2) [nM] | IC50 (Histone deacetylase 8) [nM] | IC50 (PC-3) [nM] | IC50 (HepG2) [nM] | IC50 (HEL [2]) [nM] | IC50 (KG-1) [nM] | IC50 (K562) [nM] | Activity (HEL [3]) | Activity [4] | IC50 (B16-F10 [5]) [nM] | Activity (B16-F10 [6]) | Activity (B16-F10 [7]) | Activity (B16-F10 [8]) | Activity [9] | Activity [10] | Activity [11] | Activity [12] | other results |
| --- | --- | --- | --- | --- | --- | --- | --- | --- | --- | --- | --- | --- | --- | --- | --- | --- | --- | --- | --- | --- | --- |
| O=C(CCCCCCCOc1cccc(-c2nc3ccccc3[nH]2)c1)NO | Active | 7.9 | 52 | 91 | 12.9 | 7900 | 4800 | 360 | 3400 | 990 | Active | Non-Toxic | 3970 | Active | Active | Active | Non-Toxic | Toxic | Non-Toxic | Non-Toxic | Activity [13]: Non-Toxic; fold change (FC) (B16-F10 [14]): 1.6; fold change (FC) (B16-F10 [15]): 1.3; fold change (FC) (B16-F10 [16]): 1.5; fold change (FC) (B16-F10 [17]): 1.3; Activity (B16-F10 [18]): Active; Activity (B16-F10 [19]): Active |
| O=C(CCCCCCOc1cccc(-c2nc3ccccc3[nH]2)c1)NO | Active | 13.2 | 24 | 46 | 5980 | 2700 | 3900 | 20 | 190 | 290 | Active | Non-Toxic | 4800 | Active | Active | Active | Non-Toxic | Non-Toxic | Non-Toxic | Non-Toxic | Activity [13]: Non-Toxic; fold change (FC) (B16-F10 [14]): 1.6; fold change (FC) (B16-F10 [15]): 1.3; fold change (FC) (B16-F10 [16]): 1.5; fold change (FC) (B16-F10 [17]): 1.3; Activity (B16-F10 [18]): Active; Activity (B16-F10 [19]): Active |
